Assay results published in patent US4632932A, “Antimycotic agents” (Bayer Aktiengesellschaft, priority 1982, dated 1986).

Key:
Aspergillus fumigatus = assay: Antimycotic in vitro activity, series dilution test (MIC), Aspergillus fumigatus; format: cell-based; parameters: unit not given here; details: Sabourand's milieu d'epreuve, 20° C., 96 hours
Protocol: (§1) Description of the experiment:
(§2) The in vitro tests were carried out in a series dilution test with germ inocula of an average of 5×10^4 germs/ml of substrate. The nutrient medium was (a) for dermatophytes and moulds: Sabourand's milieu d'epreuve and (b) for yeasts: meat extract/glucose broth.
(§3) The incubation temperature was 20° C. and the duration of incubation was 24 to 96 hours in the case of yeasts and 96 hours in the case of dermatophytes and moulds.

Trichophyton mentagr. = assay: Antimycotic in vitro activity, series dilution test (MIC), Trichophyton mentagr.; format: cell-based; parameters: unit not given here; details: Sabourand's milieu d'epreuve, 20° C., 96 hours
Protocol: as §1, §2, §3

Torulopsis glabrata = assay: Antimycotic in vitro activity, series dilution test (MIC), Torulopsis glabrata; format: cell-based; parameters: unit not given here; details: meat extract/glucose broth, 20° C., 24 to 96 hours
Protocol: as §1, §2, §3

Candida albicans = assay: Antimycotic in vitro activity, series dilution test (MIC), Candida albicans; format: cell-based; parameters: unit not given here; details: meat extract/glucose broth, 20° C., 24 to 96 hours
Protocol: as §1, §2, §3

Microsporum canis = assay: Antimycotic in vitro activity, series dilution test (MIC), Microsporum canis; format: cell-based; parameters: unit not given here; details: Sabourand's milieu d'epreuve, 20° C., 96 hours
Protocol: as §1, §2, §3

Candida cells = assay: Antimycotic in vivo activity (oral) in candidosis of mice; parameters: species or system Mice of the SPF-CF1 type; details: 50-100 mg/kg
Protocol: Description of the experiment
Mice of the SPF-CF1 type were infected intravenously with 1-2×10^6 logarithmically growing Candida cells, which are suspended in physiological sodium chloride solution. The animals were treated orally one hour before and seven hours after the infection, with, in each case, 50-100 mg/kg of body weight of the formulations.
Untreated animals died 3 to 6 days after infection. The survival rate on the 6th day after infection was about 5% in the case of untreated control animals.

[1] = test system: dermatophytes, moulds and yeasts; assay: Antimycotic in vitro activity, series dilution test, overall comparison; format: cell-based
Protocol: as §1, §2, §3

[2] = test system: trichophyton of mentagrophytes; assay: Antimicrobial in vivo activity (local) in the model of experimental guinea-pig trichophytosis; details: once daily, 15% strength solution

| Compound | action compared with compounds (A), (B), (C) and (D) (Candida cells) | antimycotic action in vitro compared with compounds (A), (B), (C) and (D) [1] | action (statement in words) [2] | further results |
| --- | --- | --- | --- | --- |
| 1-(2-methylphenoxy)-3,3-dimethyl-2-(1,2,4-triazol-1-yl-methyl)-2-butanol [(C)] |  |  |  | MIC values (Aspergillus fumigatus): > 64; MIC values (Trichophyton mentagr.): 32; MIC values (Torulopsis glabrata): > 64; MIC values (Candida albicans): 32 |
| 1-(2-methylphenoxy)-3,3-dimethyl-2-(imidazol-1-yl-methyl)-2-butanol [(B)] |  |  |  | MIC values (Aspergillus fumigatus): 32; MIC values (Microsporum canis): 4; MIC values (Trichophyton mentagr.): 4; MIC values (Torulopsis glabrata): > 64; MIC values (Candida albicans): 32 |
| CC(C)(C1OCCO1)C(O)(Cn1cncn1)c1ccc(Cl)cc1 (stereo not shown) [Example 3, 3-(1,3-dioxolan-2-yl)-2-(4-chlorophenyl)-3-methyl-1-(1,2,4-triazol-1-yl)-butan-2-ol] | better action | better antimycotic action |  |  |
| CC(C)(C1OCCO1)C(O)(CCc1ccc(Cl)cc1Cl)Cn1cncn1 (stereo not shown) [Example 5, 1-(2,4-dichlorophenyl)-4-(1,3-dioxolan-2-yl)-4-methyl-3-(1,2,4-triazol-1-yl-methyl)-pentan-3-ol naphthalene-1,5-disulphonate] |  | better antimycotic action |  |  |
| CC(C)(C1OCCO1)C(O)(CCc1ccc(Cl)cc1)Cn1cncn1 (stereo not shown) [Example 7] | better action | better antimycotic action | an action or a good action |  |
| CC1(C(O)(CCc2ccc(Cl)cc2Cl)Cn2cncn2)COCOC1 (stereo not shown) [Example 8] | better action | better antimycotic action | an action or a good action |  |
| CC1(C(O)(CCc2ccc(Cl)cc2)Cn2cncn2)COCOC1 (stereo not shown) [Example 9] | better action | better antimycotic action | an action or a good action |  |
| CC(C)(C1OCCO1)C(O)(C=Cc1ccc(Cl)cc1)Cn1cncn1 (stereo not shown) [Example 10] | better action | better antimycotic action | an action or a good action |  |
| CC(C)(C1OCCO1)C(O)(C=Cc1ccc(Cl)cc1Cl)Cn1cncn1 (stereo not shown) [Example 11] |  | better antimycotic action |  |  |
| CC1(C(O)(C=Cc2ccc(Cl)cc2)Cn2cncn2)COCOC1 (stereo not shown) [Example 12] |  | better antimycotic action |  |  |
| CC1(C(O)(C=Cc2ccc(Cl)cc2)Cn2cncn2)COCOC1 (stereo not shown) [Example 13] |  | better antimycotic action |  |  |
| CC(C)(C1OCCO1)C(O)(COc1ccc(-c2ccccc2)cc1)Cn1cncn1 (stereo not shown) [Example 14] | better action | better antimycotic action | an action or a good action |  |
| CC(C)(C1OCCO1)C(O)(COc1ccc(Cl)cc1)Cn1cncn1 (stereo not shown) [Example 15] | better action | better antimycotic action |  |  |
| CC1(C(O)(COc2ccc(Cl)cc2)Cn2cncn2)COCOC1 (stereo not shown) [Example 16] | better action | better antimycotic action |  |  |
| CC(C)(C1OCCO1)C(O)(CCc1ccc(Cl)cc1)Cn1ccnc1 (stereo not shown) [Example 19] | better action | better antimycotic action | an action or a good action |  |
| CC(C)(C1OCCO1)C(O)(CCc1ccc(Cl)cc1Cl)Cn1ccnc1 (stereo not shown) [Example 20] | better action | better antimycotic action | an action or a good action |  |
| CC1(C(O)(CCc2ccc(Cl)cc2Cl)Cn2ccnc2)COCOC1 (stereo not shown) [Example 21] | better action | better antimycotic action | an action or a good action |  |
| CC1(C(O)(CCc2ccc(Cl)cc2)Cn2ccnc2)COCOC1 (stereo not shown) [Example 22] | better action |  | an action or a good action |  |
| CC(C)(C1OCCO1)C(O)(C=Cc1ccc(Cl)cc1)Cn1ccnc1 (stereo not shown) [Example 23] | better action | better antimycotic action | an action or a good action |  |
| CC1(C(O)(COc2ccc(Cl)cc2)Cn2ccnc2)COCOC1 (stereo not shown) [Example 26] | better action |  |  |  |
